# From patent US11332443B2, “Derivatives of halo quinabactin” (THE REGENTS OF THE UNIVERSITY OF CALIFORNIA, priority 2015, dated 2022)
# Key:
# Assay type in all cases: biochemical
# PYL1-HAB1 = target: T1, PYL1-HAB1 (Arabidopsis thaliana, UniProt Q8VZS8); experiment: PP2C activity assay, PYL1-HAB1 inhibition; conditions: 200 nM test compound, 100 nM HAB1 PP2C, 200 nM receptor; read-out: % Inhibition of PYR/PYL-HAB1 at 200 nM: PYL1
# T1 construct: 6xHis (N); made in house; host or cells: E. coli BL21[DE3]pLysS (stated for GST-HAB1)
# T1 sequence (Q8VZS8 1-221): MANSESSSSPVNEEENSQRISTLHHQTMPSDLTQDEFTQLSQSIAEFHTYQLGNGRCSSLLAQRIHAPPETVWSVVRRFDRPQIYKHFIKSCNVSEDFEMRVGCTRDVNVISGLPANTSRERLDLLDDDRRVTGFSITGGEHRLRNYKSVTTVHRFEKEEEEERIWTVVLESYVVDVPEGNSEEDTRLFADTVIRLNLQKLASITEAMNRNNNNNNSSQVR
# T1 sequence (Q9CAJ0 23-511 partner): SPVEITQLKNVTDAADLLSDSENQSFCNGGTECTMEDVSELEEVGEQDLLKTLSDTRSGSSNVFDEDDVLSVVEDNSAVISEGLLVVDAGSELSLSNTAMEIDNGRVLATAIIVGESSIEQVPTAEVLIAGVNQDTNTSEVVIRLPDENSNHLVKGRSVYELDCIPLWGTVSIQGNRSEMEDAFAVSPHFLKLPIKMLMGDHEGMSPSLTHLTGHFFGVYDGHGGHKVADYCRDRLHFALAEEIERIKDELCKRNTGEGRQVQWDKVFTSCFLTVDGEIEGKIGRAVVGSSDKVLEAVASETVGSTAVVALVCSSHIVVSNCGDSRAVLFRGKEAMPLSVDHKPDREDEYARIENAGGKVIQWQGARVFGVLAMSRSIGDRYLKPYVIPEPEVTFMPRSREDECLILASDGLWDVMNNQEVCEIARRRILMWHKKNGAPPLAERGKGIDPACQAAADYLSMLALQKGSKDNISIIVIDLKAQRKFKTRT
# Source text: (§1) The protein HAB1, a type 2 protein phosphatase (PP2C), is inhibited by PYR/PYL proteins in dependence of abscisic acid or other agonists. The potency of an agonist correlates with the level of inhibition of the PP2C, and therefore the IC50 (receptor-HAB1) can be used to compare the relative activity of different chemical analogues. Since inhibition of PP2C correlates to inhibition of seed-germination and increase in plant water-use efficiency, it serves as a powerful tool to quantify biological potential of a chemical acting as an analogue of abscisic acid.
# (§2) HAB1 and PYL proteins were expressed and purified as described in Park et al. ((2009) Science 324(5930):1068-1071), with minor modifications. GST-HAB1 was produced by expression in BL21[DE3]pLysS host cells with an expression clone containing the HAB1 cDNA cloned into pGex-2T. Transformed E. coli cells were pre-cultured overnight, transferred to LB medium and cultured at 30° C. to culture A600 of ˜0.5 OD units. The culture was then cooled on ice and MnCl2 added to 4 mM and IPTG added to 0.3 mM. After 16 hours incubation at 15° C., cells were harvested and recombinant proteins were purified on glutathione agarose as described in Park et al. To obtain 6×His-PYL receptor fusion proteins, we used expression constructs previously described by Okamoto et al. 2013, (PNAS 110(29): 12132-12137).
# (§3) PP2C activity assays using recombinant receptors and PP2Cs were carried out as follows: purified proteins were pre-incubated in 160 μl assay buffer containing (100 mM Tris-HCl-pH7.9, 100 mM NaCl, 3 μg bovine serum albumin and 0.1% 2-mercaptoethanol), 1 mM MnCl2 with carrier solvent (DMSO), quinabactin or quinabactin analogs (compounds of the present invention) for 30 minutes at room temperature. Reactions were started by adding 40 μL of a reaction solution containing 25 mM 4-nitrophenyl phosphate in assay buffer, after which absorbance measurements were immediately collected (405 nm) using a Wallac plate reader. Reactions contained 100 nM HAB1 PP2C and 200 nM receptor and 200 nM test compound. Inhibition is indicated by reduced PP2C activity, which is expressed as a percentage of the control PP2C activity values that were obtained from assays containing carrier solvent instead but no test compound.
# PYL2-HAB1 = target: T2, PYL2-HAB1 (Arabidopsis thaliana, UniProt O80992); experiment: PP2C activity assay, PYL2-HAB1 inhibition; conditions: for percent inhibition at 0.2 µM: 200 nM test compound, 100 nM HAB1 PP2C, 200 nM receptor, read-out: % Inhibition of PYR/PYL-HAB1 at 200 nM: PYL2; for IC50: dose response in triplicate, non-linear regression
# T2 construct: 6xHis (N); made in house; host or cells: E. coli BL21[DE3]pLysS (stated for GST-HAB1)
# T2 sequence (O80992 1-190): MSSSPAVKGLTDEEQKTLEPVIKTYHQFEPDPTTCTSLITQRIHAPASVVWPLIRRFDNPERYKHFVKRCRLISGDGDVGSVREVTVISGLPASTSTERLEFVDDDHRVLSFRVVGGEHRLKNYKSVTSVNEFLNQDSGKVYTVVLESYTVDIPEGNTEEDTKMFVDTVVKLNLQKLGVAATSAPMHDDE
# T2 sequence (Q9CAJ0 23-511 partner): T1 sequence (Q9CAJ0 23-511 partner)
# Source text: as §1, §2
# as §3, with “Reactions contained 100 nM HAB1 PP2C and 200 nM receptor and 200 nM test compound.” left out
# PYR1-HAB1 = target: T3, PYR1-HAB1 (Arabidopsis thaliana, UniProt O49686); experiment: PP2C activity assay, PYR1-HAB1 inhibition; conditions: for activity at 0.2 µM: 200 nM test compound, 100 nM HAB1 PP2C, 200 nM receptor, read-out: % Inhibition of PYR/PYL-HAB1 at 200 nM: PYR1; for IC50: dose response in triplicate, non-linear regression
# T3 construct: 6xHis (N); made in house; host or cells: E. coli BL21[DE3]pLysS (stated for GST-HAB1)
# T3 sequence (O49686 1-191): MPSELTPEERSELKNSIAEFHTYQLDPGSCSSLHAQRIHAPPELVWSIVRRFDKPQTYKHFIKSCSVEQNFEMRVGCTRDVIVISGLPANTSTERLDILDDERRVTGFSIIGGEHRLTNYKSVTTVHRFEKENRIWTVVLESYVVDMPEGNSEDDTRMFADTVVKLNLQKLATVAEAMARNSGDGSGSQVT
# T3 sequence (Q9CAJ0 23-511 partner): T1 sequence (Q9CAJ0 23-511 partner)
# Source text: as §1, §2
# as §3, with “Reactions contained 100 nM HAB1 PP2C and 200 nM receptor and 200 nM test compound.” left out
Compound,activity at 0.2 µM (PYL1-HAB1) [%],percent inhibition at 0.2 µM (PYL2-HAB1) [%],IC50 (PYL2-HAB1) [nM],activity at 0.2 µM (PYR1-HAB1) [%],IC50 (PYR1-HAB1) [nM]
CCCN1C(=O)CCc2cc(NS(=O)(=O)Cc3ccc(C)cc3)cc(F)c21 [HQ1],11.8,28,42,14.7,37.5
CCCN1C(=O)CCc2cc(NS(=O)(=O)Cc3ccc(C)cc3)cc(Cl)c21 [HQ2],20.3,38.9,74,37.9,47.7
C=CCN1C(=O)CCc2cc(NS(=O)(=O)Cc3ccc(C)cc3)cc(F)c21 [HQ28],,,401,,62.3
CCN1C(=O)CCc2cc(NS(=O)(=O)Cc3ccc(C)cc3)cc(F)c21 [HQ29],,,83,,17.2
"CCN1C(=O)CC(C)c2cc(NS(=O)(=O)Cc3ccc(C)cc3)cc(F)c21 (stereo not shown) [HQ30, N-(1-ethyl-8-fluoro-4-methyl-2-oxo-3,4-dihydroquinolin-6-yl)-1-(p-tolyl)methanesulfonamide]",,,11,,39.6
C=CCN1C(=O)CC(C)c2cc(NS(=O)(=O)Cc3ccc(C)cc3)cc(F)c21 (stereo not shown) [HQ31],,,52,,164
Cc1ccc(CS(=O)(=O)Nc2cc(F)c3c(c2)C(C)CC(=O)N3C(C)C)cc1 (stereo not shown) [HQ32],,,40,,408
C=CCN1C(=O)CC(C)c2cc(NS(=O)(=O)Cc3ccc(CC)cc3)cc(F)c21 (stereo not shown) [HQ33],,,61,,204
CCc1ccc(CS(=O)(=O)Nc2cc(F)c3c(c2)C(C)CC(=O)N3C(C)C)cc1 (stereo not shown) [HQ34],,,26,,462
CCc1ccc(CS(=O)(=O)Nc2cc(F)c3c(c2)C(C)CC(=O)N3CC)cc1 (stereo not shown) [HQ35],,,12,,37
C=CCN1C(=O)CC(C)c2cc(NS(=O)(=O)Cc3ccc(COC)cc3)cc(F)c21 (stereo not shown) [HQ36],,,32,,126
COCc1ccc(CS(=O)(=O)Nc2cc(F)c3c(c2)C(C)CC(=O)N3C(C)C)cc1 (stereo not shown) [HQ37],,,33,,227
CCN1C(=O)CC(C)c2cc(NS(=O)(=O)Cc3ccc(COC)cc3)cc(F)c21 (stereo not shown) [HQ38],,,26,,103
Cc1ccc(CS(=O)(=O)Nc2cc(F)c3c(c2)C(C)CC(=O)N3C2CC2)cc1 (stereo not shown) [HQ39],,,77,,1260
CCCN1C(=O)CCc2cc(NS(=O)(=O)Cc3ccc(C)cc3)cc(Br)c21 [HQ40],,,239,,165
CCCN1C(=O)CCc2cc(NS(=O)(=O)Cc3ccc(C)cc3)cc(C#N)c21 [HQ41],,,1450,,967

Compound,activity at 0.2 µM (PYL1-HAB1) [%],percent inhibition at 0.2 µM (PYL2-HAB1) [%],IC50 (PYL2-HAB1) [nM],activity at 0.2 µM (PYR1-HAB1) [%],IC50 (PYR1-HAB1) [nM]
CCN1C(=O)CC(C)c2cc(NS(=O)(=O)Cc3ccc(C#N)cc3F)cc(F)c21 (stereo not shown) [HQ42],,,247,,589
CCN1C(=O)CC(C)c2cc(NS(=O)(=O)Cc3ccc(Cl)cc3Cl)cc(F)c21 (stereo not shown) [HQ43],,,2010,,> 10000
CCN1C(=O)CC(C)c2cc(NS(=O)(=O)Cc3ccc(C(F)(F)F)cc3)cc(F)c21 (stereo not shown) [HQ44],,,250,,2370
CCN1C(=O)CC(C)c2cc(NS(=O)(=O)c3ccccc3)cc(F)c21 (stereo not shown) [HQ45],,,7730,,> 10000
CCCN1C(=O)CCc2c1ccc(NS(=O)(=O)Cc1ccc(C)cc1)c2F [HQ46],,,1460,,694
"CCCN1C(=O)CCc2cc(NS(=O)(=O)Cc3ccc(C)cc3)c(F)cc21 [HQ47, N-(7-fluoro-2-oxo-1-propyl-3,4-dihydroquinolin-6-yl)-1-(p-tolyl)methanesulfonamide]",,,182,,172
CCN1C(=O)CC(C)c2cc(NS(=O)(=O)Cc3ccc(C)cc3F)cc(F)c21 (stereo not shown) [HQ48],,,23,,56
CCN1C(=O)CC(C)c2cc(NS(=O)(=O)Cc3ccc(C#N)cc3)cc(F)c21 (stereo not shown) [HQ49],,,112,,405
CCN1C(=O)CC(C)c2cc(NS(=O)(=O)Cc3ccc(C)cc3Br)cc(F)c21 (stereo not shown) [HQ50],,,4470,,> 10000
CCN1C(=O)CC(C)c2cc(NS(=O)(=O)Cc3ccc(C)cc3C)cc(F)c21 (stereo not shown) [HQ51],,,930,,> 10000
CCN1C(=O)CC(C)c2cc(NS(=O)(=O)Cc3ccc(C)c(F)c3)cc(F)c21 (stereo not shown) [HQ52],,,46,,444
CCN1C(=O)CC(C)c2cc(NS(=O)(=O)Cc3ccc(C)cn3)cc(F)c21 (stereo not shown) [HQ53],,,160,,153
CCN1C(=O)CC(C)c2cc(NS(=O)(=O)Cc3ccc(Cl)cn3)cc(F)c21 (stereo not shown) [HQ54],,,234,,512
CCN1C(=O)CC(C)c2cc(NS(=O)(=O)Cc3ccc(C)nc3)cc(F)c21 (stereo not shown) [HQ55],,,1600,,> 10000
CCN1C(=O)CC(C)c2cc(NS(=O)(=O)Cc3ccc(Cl)nc3)cc(F)c21 (stereo not shown) [HQ56],,,486,,1250
CCN1C(=O)CC(C)c2cc(NS(=O)(=O)Cc3ccc(Cl)s3)cc(F)c21 (stereo not shown) [HQ57],,,94,,953
